According to patent US11160798B2, “Neuroprotective CB2 receptor agonists” (THE CLEVELAND CLINIC FOUNDATION, priority 2012, dated 2021):

What was measured:
rCB1 = rCB1 (Rattus norvegicus, UniProt P20272); settings: cited from earlier work
IL-1β = IL-1β protein expression in hippocampal CA1 area (immunoblotting); format: in vivo, rat; settings: Aβ1-40-injected rats, 15 mg/kg i.p. daily for 14 days
Procedure: Animals were divided into several groups (40-50 rats per group). The Aβ1-40 group received bilateral intracerebral microinjection of Aβ1-40 fibrils once and saline intraperitoneally (i.p.) daily for 14 days. The Aβ1-40+MDA7 group received bilateral intracerebral microinjection of Aβ1-40 fibrils once and 15 mg/kg MDA7 i.p. daily for 14 days. Other cohorts received smaller doses of MDA7 (5 mg/kg or 1.5 mg/kg) i.p. daily for 14 days to determine the dose-response characteristics for MDA7. In other groups, AM630 (a CB2 antagonist) 5 mg/kg i.p. was administered daily for 14 days either alone (Aβ1-40+AM630 group) or 15 min prior to MDA7 (15 mg/kg i.p.) administration (Aβ1-40+MDA7+AM630 group) to rats injected with β1-40 fibrils. […]
Protein extraction and immunoblotting. […] Protein concentrations were determined by using the Bio-Rad (Hercules, Calif.) protein assay kit.
The samples were treated with SDS sample buffer at 95° C. for 5 min, loaded on a 7.5% SDS-polyacrylamide, gel, and blotted to a nitrocellulose membrane. […] The immunoreactivity was detected using enhanced chemiluminescence (ECL Advance Kit; Amersham Biosciences). The intensity of the bands was captured digitally and analyzed quantitatively with ImageJ software. […]

GFAP = GFAP immunoreactivity in hippocampal CA1 area (immunostaining, immunoblotting); format: in vivo, rat
Procedure: (§1) Animals were divided into several groups ([…]). The Aβ1-40 group received bilateral intracerebral microinjection of Aβ1-40 fibrils once and saline intraperitoneally (i.p.) daily for 14 days. The Aβ1-40+MDA7 group received bilateral intracerebral microinjection of Aβ1-40 fibrils once and 15 mg/kg MDA7 i.p. daily for 14 days. Other cohorts received smaller doses of MDA7 (5 mg/kg or 1.5 mg/kg) i.p. daily for 14 days to determine the dose-response characteristics for MDA7. In other groups, AM630 (a CB2 antagonist) 5 mg/kg i.p. was administered daily for 14 days either alone (Aβ1-40+AM630 group) or 15 min prior to MDA7 (15 mg/kg i.p.) administration (Aβ1-40+MDA7+AM630 group) to rats injected with β1-40 fibrils. MDA7 group and control group received bilateral intracerebral microinjection of artificial cerebrospinal fluid (130 mM NaCl, 2.6 mM KCl. 4.3 mM MgCl2 and 1.8 mM CaCl2) once and 15 mg/kg MDA7 or saline i.p. daily for 14 days, respectively. Intraperitoneal administration of AM630, MDA7 or saline started on the same day after intracerebral microinjection of Aβ1-40. All drugs were prepared coded. Decoding was performed at the end of all experiments.
(§2) Microinjection of amyloid fibrils into the hippocampal CA1 area. Rats were anesthetized with sodium pentobarbital (45 mg/kg i.p.) and restrained in a stereotaxic apparatus. Aβ1-40 fibrils were formed as described previously. […]
(§3) Immunostaining. […] Three to six sections from each rat were randomly selected and were analyzed using Leica DMLB fluorescence microscope (Leica Microsystems Wetzlar GmbH, Germany) by one investigator, who was blinded to the origin of tissue being examined. Images were quantified using MCID Core software version 7.0 (InterFocus Imaging Ltd, Cambridge, England). […]

CD11b = CD11b immunoreactivity in hippocampal CA1 area (immunostaining, immunoblotting); format: in vivo, rat
Procedure: as §1, §2, §3

[1] = Aβ-injected rats, 14 days i.p. (15 mg/kg), vs saline, hippocampal CA1
[2] = rats without Aβ1-40, compared to control rats

rCB1, sequence (P20272 whole entry): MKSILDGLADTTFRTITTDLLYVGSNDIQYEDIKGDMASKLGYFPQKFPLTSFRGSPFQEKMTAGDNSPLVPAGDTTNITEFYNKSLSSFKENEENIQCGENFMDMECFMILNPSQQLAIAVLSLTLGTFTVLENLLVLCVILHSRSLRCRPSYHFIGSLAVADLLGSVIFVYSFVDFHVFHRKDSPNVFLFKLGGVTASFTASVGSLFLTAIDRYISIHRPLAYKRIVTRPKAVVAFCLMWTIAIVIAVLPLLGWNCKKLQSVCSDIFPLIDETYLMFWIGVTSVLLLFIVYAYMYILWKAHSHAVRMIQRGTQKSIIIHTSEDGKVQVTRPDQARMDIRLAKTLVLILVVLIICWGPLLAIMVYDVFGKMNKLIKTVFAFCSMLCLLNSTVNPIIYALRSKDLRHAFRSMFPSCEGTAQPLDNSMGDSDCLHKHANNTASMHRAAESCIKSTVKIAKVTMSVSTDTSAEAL

CC1(Cc2ccccc2)COc2cc(C(=O)N3CCCCC3)ccc21 (centres unmarked) [MDA7, 3-benzyl-3-methyl-2,3-dihydrobenzofuran-6-carboxylic acid-piperidine amide]
EC50 at rCB1 (rCB1): not active
IL-1β protein expression (immunoblot) (IL-1β): significantly attenuated
GFAP immunofluorescence intensity (GFAP; Aβ1-40-injected rats, 15 mg/kg i.p. for 14 days, vs saline, hippocampal CA1): significantly less
GFAP protein expression (immunoblot) (GFAP; [1]): significantly attenuated
GFAP expression, treatment alone (GFAP; [2]): no significant effect
CD11b immunofluorescence intensity (CD11b; Aβ1-40-injected rats, i.p. for 14 days, vs saline, hippocampal CA1): significantly less
CD11b protein expression (immunoblot) (CD11b; [1]): significantly attenuated
CD11B expression, treatment alone (CD11b; [2]): no significant effect
